Row | melting point | Structure (SMILES)
1 | 159 to 162 °C | CC(=O)Nc1cccc(CNc2nc(Nc3cccc(NS(C)(=O)=O)c3)nc3[nH]cnc23)c1 [Example 64, N-(3-{[2-(3-Methanesulfonylamino-phenylamino)-9H-purin-6-ylamino]-methyl}-phenyl)-acetamide]
2 | 143 to 146 °C | CCC(C)(C)[C@@H](C)Nc1nc(Nc2cccc(NS(C)(=O)=O)c2)nc2[nH]cnc12 [Example 65, N-{3-[6-((R)-1,2,2-Trimethyl-butylamino)-9H-purin-2-ylamino]-phenyl}-methanesulfonamide]
3 | 170 to 173 °C | CS(=O)(=O)Nc1cccc(Nc2nc(NCc3cccc(N)c3)c3nc[nH]c3n2)c1 [Example 72, N-{3-[6-(3-Amino-benzylamino)-9H-purin-2-ylamino]-phenyl}-methanesulfonamide]
4 | 221 to 225 °C | CS(=O)(=O)Nc1cccc(Nc2nc(NCc3cccc(O)c3)c3nc[nH]c3n2)c1 [Example 73, N-{3-[6-(3-Hydroxy-benzylamino)-9H-purin-2-ylamino]-phenyl}-methanesulfonamide]
5 | 128 to 131 °C | CS(=O)(=O)Nc1cccc(Nc2nc(NCc3cccc(C#N)c3)c3nc[nH]c3n2)c1 [Example 78, N-{3-[6-(3-Cyano-benzylamino)-9H-purin-2-ylamino]-phenyl}-methanesulfonamide]
6 | 127 to 131 °C | CC(C)NCCNc1nc(Nc2cccc(NS(C)(=O)=O)c2)nc2[nH]ccc12 [Example 82, N-{3-[4-(2-Isopropylamino-ethylamino)-7H-pyrrolo[2,3-d]pyrimidin-2-ylamino]-phenyl}-methanesulfonamide]
7 | 106 to 109 °C | CC(C)[C@@H](CO)Nc1nc(Nc2cccc(NS(C)(=O)=O)c2)nc2[nH]ccc12 [Example 84, N-{3-[4-((S)-1-Hydroxymethyl-2-methyl-propylamino)-7H-pyrrolo[2,3-d]pyrimidin-2-ylamino]-phenyl}-methanesulfonamide]
8 | 129 to 132 °C | CC(C)N(CCO)c1nc(Nc2cccc(NS(C)(=O)=O)c2)nc2[nH]ccc12 [Example 87, N-(3-{4-[(2-Hydroxy-ethyl)-isopropyl-amino]-7H-pyrrolo[2,3-d]pyrimidin-2-ylamino}-phenyl)-methanesulfonamide]
9 | 138 to 141 °C | CC[C@H](Nc1nc(Nc2cccc(NS(C)(=O)=O)c2)nc2[nH]cnc12)c1ccccc1 [Example 92, N-{3-[6-((S)-1-Phenyl-propylamino)-9H-purin-2-ylamino]-phenyl}-methanesulfonamide]
10 | 145 to 148 °C | CS(=O)(=O)Nc1cccc(Nc2nc(NCc3ccccc3CO)c3nc[nH]c3n2)c1 [Example 93, N-{3-[6-(2-Hydroxymethyl-benzylamino)-9H-purin-2-ylamino]-phenyl}-methanesulfonamide]
11 | 168 to 171 °C | CS(=O)(=O)Nc1cccc(Nc2nc(NCc3ccccc3O)c3nc[nH]c3n2)c1 [Example 94, N-{3-[6-(2-Hydroxy-benzylamino)-9H-purin-2-ylamino]-phenyl}-methanesulfonamide]
12 | 133 to 136 °C | C=CS(=O)(=O)Nc1cccc(Nc2nc(N[C@H](C)C(C)(C)C)c3nc[nH]c3n2)c1 [Example 97, Ethenesulfonic acid {3-[6-((R)-1,2,2-trimethyl-propylamino)-9H-purin-2-ylamino]-phenyl}-amide]

From US20080261973A1, “Sulphonamidoaniline Derivatives Being Janus Kinase Inhibitors” (Novartis AG, priority 2005, published 2008)
